Data taken from publication PMC11887451, “Leveraging Immunogenic Cell Death to Enhance the Immune Response against Malignant Pleural Mesothelioma Tumors” (Journal of the American Chemical Society, 2025).

Experiments:
[1] = test system: murine malignant mesothelioma cell line AB12; test: MTT cytotoxicity assay, 72 h, AB12; assay type: cell-based, mouse; conditions: exposure time 72 h
[2] = test system: human malignant mesothelioma cell line JU77; test: MTT cytotoxicity assay, 72 h, JU77; assay type: cell-based; conditions: exposure time 72 h
Description: (§1) Human malignant mesothelioma cancer cell lines JU77 and LO68 were obtained from Cell Bank Australia (Children's Medical Research Institute, Westmead, Australia). Mouse malignant mesothelioma cancer cell line AB12, human nonmalignant mesothelioma cancer cell line Met5A (mesothelial cells), mouse macrophage cell line J774 and human monocytic cell line THP-1 were obtained from American Type Culture Collection (ATCC) (Rockville, MD, USA). Human malignant mesothelioma cell lines VMC23 (epithelial), Meso82 (sarcomatous), Meso92 (biphasic), were kindly provided by Prof. Walter Berger (Medical University of Vienna). All cells except for J774 were cultured in RPMI and J774 cells were cultured in DMEM. Both types of media were supplemented with 10% FBS and 1% penicillin-streptomycin (10,000 U/mL). Cells were grown in tissue culture flasks (75 cm2 and 25 cm2, SPL Life Sciences Co., Ltd., Korea). All cell lines were grown at 37 °C in a humidified atmosphere of 95% air and 5% CO 2 and passaged when they reached 80–90% confluency. All Au stock solutions were prepared in 1% DMSO in the respected medium, ensuring that cell viability was not inhibited.
(§2) The cytotoxicity of compounds was determined using an MTT colorimetric test. The cells were harvested from culture flasks by trypsinization and seeded into Cellstar 96 -well microculture plates (Greiner Bio -One) at the seeding density of 6000 cells per well (6 × 10^4 cells/mL). After
(§3) the cells were allowed to resume exponential growth for 16 h, they were exposed to drugs at
(§4) different concentrations in media for 72 h. The drugs were diluted in a complete medium at the desired concentration added to each well (100 μL) and serially diluted in other wells. After exposure for 72 h, the media was replaced with MTT in media (5 mg/mL, 100 μL/well) and
(§5) incubated for an additional 50 min. Subsequently, the medium was aspirated, and the purple formazan crystals formed in viable cells were dissolved in DMSO (100 μL/well). Optical densities were measured at 570 nm using a BioTek Synergy H1 microplate and MultiskanTM SkyHigh plate readers. The quantity of viable cells was expressed in terms of treated/control (T/C) values in comparison to untreated control cells, and 50% inhibitory concentrations (IC 50) were calculated from concentration-effect curves by interpolation. An evaluation was based on means from at least three independent experiments, each comprising three replicat es per

[3] = test system: human malignant mesothelioma cell line LO68; test: MTT cytotoxicity assay, 72 h, LO68; assay type: cell-based; conditions: exposure time 72 h
Description: as §1, §2, §3, §4, §5

[4] = test system: patient-derived VMC23 cell line (epithelioid MPM); test: MTT cytotoxicity assay, 72 h, VMC23; assay type: cell-based, human; conditions: exposure time 72 h
Description: as §1, §2, §3, §4, §5

[5] = test system: patient-derived Meso84 cell line (sarcomatoid MPM); test: MTT cytotoxicity assay, 72 h, Meso84; assay type: cell-based, human; conditions: exposure time 72 h
[6] = test system: patient-derived Meso92 cell line (biphasic MPM); test: MTT cytotoxicity assay, 72 h, Meso92; assay type: cell-based, human; conditions: exposure time 72 h
Description: Cell lines and culture conditions
Mouse malignant mesothelioma cancer cell line AB12, human nonmalignant mesothelioma cancer cell line Met5A (mesothelial cells), mouse macrophage cell line J774 and human monocytic cell line THP-1 were obtained from American Type Culture Collection (ATCC) (Rockville, MD, USA). Human malignant mesothelioma cell lines VMC23 (epithelial), Meso82 (sarcomatous), Meso92 (biphasic), were kindly provided by Prof. Walter Berger (Medical University of Vienna). All cells except for J774 were cultured in RPMI and J774 cells were cultured in DMEM. Both types of media were supplemented with 10% FBS and 1% penicillin-streptomycin (10,000 U/mL). Cells were grown in tissue culture flasks (75 cm2 and 25 cm2, SPL Life Sciences Co., Ltd., Korea). All cell lines were grown at 37 °C in a humidified atmosphere of 95% air and 5% CO 2 and passaged when they reached 80–90% confluency. All Au stock solutions were prepared in 1% DMSO in the respected medium, ensuring that cell viability was not inhibited. The Au concentration in the stock solutions was confirmed through inductively coupled plasma optical emission spectrometry. The stock solution of pemetrexed (10 mM) was prepared in Milli -Q water.
Inhibition of c ell viability assay
as §2, §3, §4, §5

[7] = test system: human nonmalignant mesothelioma cell line Met5A; test: MTT cytotoxicity assay, 72 h, Met5A; assay type: cell-based; conditions: exposure time 72 h
[8] = test system: AB12 cells phagocytosed by J774 macrophages; test: Phagocytosis assay, flow cytometry; assay type: cell-based, mouse; conditions: AB12 treated 100 min at 5 × IC50 (72 h), 16 h with J774 macrophages
Description: page 21: incubated for an additional 50 min. Subsequently, the medium was aspirated, and the purple formazan crystals formed in viable cells were dissolved in DMSO (100 μL/well). Optical densities were measured at 570 nm using a BioTek Synergy H1 microplate and MultiskanTM SkyHigh plate readers. The quantity of viable cells was expressed in terms of treated/control (T/C) values in comparison to untreated control cells, and 50% inhibitory concentrations (IC 50) were calculated from concentration-effect curves by interpolation. An evaluation was based on means from at least three independent experiments, each comprising three […] concentration level. For macrophage analyses, the acute monocytic leukemia -derived THP-1 cell line (ATCC) was used as a model. 1 × 104 THP-1 cells were seeded per well in 96-well plates in RPMI-1640 with 10% FCS and treated for 24 h with 75 nM phorbol 12-myristate 13-acetate (PMA, Sigma- Aldrich) to induce M0 macrophage differentiation. After the differentiation period, PMA was replaced by fresh culture medium to recover for 2h. Afterwards increasing concentrations of 1G, 5A, 5B and 5G were added for a 72-h continuous drug exposure assay. In parallel, the […] were allowed to attach for 24 h. Gold compounds were added to the cells as described for the THP-1 model above. After the incubation period of 72 h, cell viability was determined by an MTT-based assay (EU4U, Biomedica) following the instructions of the manufacturer. DMSO had not impact on the cell viability at the concentrations used. Flow cytometry experiments Phagocytosis assay […] with RPMI, centrifuged (300 × g, 5 min) and labelled with CellTracker Red CMTPX Dye (0.72 μM for 5 × 10^5 cells) at 37°C for 30 minutes in 1 ml of serum -free RPMI. Following S21 page 22: centrifugation of the cells (300 × g, 5 min), 5 ml of fresh RPMI was introduced, and the cells were seeded at a density of 5 x 10^5 cells per well into Cellstar 6-well plates (Greiner Bio-One) (1 ml per well). J774 macrophages (70-80% confluence in a T75 flask) were detached by scraping, centrifuged (300 × g, 5 min). The medium was substituted with 1 ml of DMEM containing CellTracker Green CMFDA (1 μM) and the J774 macrophages were stained at 37°C for 30 minutes. Following centrifugation of the J774 macrophages (300 × g, 5 min), 5 ml of fresh DMEM was introduced, and the macrophages were seeded into a 100 cm2 petri dish (SPL Life Sciences, Korea). After 24 h, the media in AB12 cells was replaced with 1 ml of fresh […] for 100 minutes. After removing the drug-containing media, the cells were trypsinized (0.5 ml), neutralized with 1 ml of RPMI, centrifuged (300 × g, 5 min) and counted. From each sample, […] cells into 6-well plates. AB12 cells and J774 macrophages were co-incubated for 16 h at 37°C and 5% CO2, detached by scraping, centrifuged (300 × g, 5 min), and the pellets were resuspended in PBS for immediate analysis using a CytoFLEX Flow Cytometer (Beckman Coulter, USA). The percentage of phagocytosis was determined by calculating the number of double-positive macrophages (Q2) over the total number of macrophages (Q2 + Q3). […] Annexin V/PI assay AB12 cells were seeded into Cellstar 6-well plates (Greiner Bio-One) at a density of 5 × 10^5 cells/well (1 ml per well). […] The medium was removed and cells were washed with PBS (2 × 1 mL). Afterwards the cells were […] S22

SMILES	IC50 [1]	IC50 [2]	IC50 [3]	IC50 [4]	IC50 [5]	IC50 [6]	IC50 [7]	phagocytosis / ICD response (in words) [8]	IC50 ([1]; Mus musculus)	IC50 ([2]; Homo sapiens)	IC50 ([3]; Homo sapiens)	IC50 ([4]; Homo sapiens)	IC50 ([5]; Homo sapiens)	IC50 ([6]; Homo sapiens)	IC50 ([7]; Homo sapiens, MeT-5A)
F[P-](F)(F)(F)(F)F.c1cc[c]2c(c1)Nc1cccc[n+]1[Au-]21[S]C(=[N+]2CCCCCC2)[S]1 (stereo not shown) [5G]	330 ± 90 nM	220 ± 40 nM	430 ± 50 nM	730 ± 160 nM	300 ± 70 nM	350 ± 40 nM	250 ± 50 nM	substantial phagocytosis	–	–	–	–	–	–	–
Nc1nc2[nH]cc(CCc3ccc(C(=O)N[C@@H](CCC(=O)O)C(=O)O)cc3)c2c(=O)[nH]1 [Pemetrexed, pemetrexed, reference compound]	–	–	–	–	–	–	–	failed to initiate any ICD response	23 ± 7 nM	73 ± 14 nM	94 ± 28 nM	170 ± 40 nM	27 ± 2 nM	140 ± 40 nM	300 ± 100 nM
